Here are results for two compounds from patent publication US10258642B2, “Dextran sulfate for use in mobilization of cells” (TX MEDIC AB, priority 2013, dated 2019).

Read-outs that look alike come from different tables or passages of the source. Marks after values point to notes of the source that are not given here.

For series [1] the following is noted: clinical trials (CHMP Assessment Report); cited from earlier work.
The test system of a further series is stem cells. The settings on record: mice (Broxmeyer 2005); cited from earlier work.
Another series relates to HGF. Nature of the series: s.c. dose finding study, HGF-ELISA. To be noted: one hour after administration of AMD3100. In general terms: In an ELISA, binding on a coated surface is turned into a signal by an enzyme label.
Another series has as its system peripheral blood cells. Nature of the series: s.c. dose finding study, hematological analysis of peripheral blood.
Series [2] relates to colony forming cells (CFCs). To be noted: monkeys (Sweeney 2000, 2002); cited from earlier work.
The next series deals with CFU-GM. To be noted: cited from earlier work.
The test system of series [3] is colony forming cells (CFCs). The settings on record: mice (Sweeney 2000, 2002); cited from earlier work.
Where [4] appears, read: AMD3100 5 mg/kg s.c., 1 hour, mean ± SEM.

Consider `c1cc(CN2CCCNCCNCCCNCC2)ccc1CN1CCCNCCNCCCNCC1` [AMD3100, 1,1′-[1,4-phenylenebis (methylene)]-bis-1,4,8,11-tetraazacyclotetradecane, reference compound], for which, in series [1], the “HSCT patients who experienced infections after transplantation” value is 20-25%. Further, the “time of peak in mobilized stem cells after plerixafor administration” value with stem cells was 1 h. The compound also came in with an HGF levels with HGF of 650 ± 230 pg/mL. Also, in the series on peripheral blood cells (setting [4]), the Basophils is given as 0.03 ± 0.0 10^9 cells/L, the Eosinophils is reported as 0.3 ± 0.0* 10^9 cells/L, the LUC was 0.05 ± 0.0* 10^9 cells/L and the “Leukocytes (WBC)” value is listed as 7.8 ± 0.6* 10^9 cells/L. For the same compound, in the series on peripheral blood cells (setting [4]), the Lymphocytes is given as 5.3 ± 0.4 10^9 cells/L, the MPV was 8.0 ± 0.1, the Monocytes is given as 0.3 ± 0.0 10^9 cells/L and the Neutrophils is listed as 1.8 ± 0.2* 10^9 cells/L. Moreover, in the series on peripheral blood cells (mouse, in vivo, sc, 5 mg/kg), the Erythrocytes is given as 8.0 ± 0.0*** 10^12 cells/L, the Hemoglobin is 112.5 ± 0.9, the MCHC was determined as 332.0 ± 2.0 g/L and the MCV stood at 42.7 ± 0.6 fL. In the series with peripheral blood cells (mouse, in vivo, sc, 5 mg/kg), the Platelets is 706.8 ± 30.7** 10^9 cells/L and the Reticulocytes was 186.3 ± 23.7 10^9 cells/L.
In the case of “dextran sulfate [dextran sulfate 10 kDa]”, the “time of CFC mobilization after dextran sulfate administration” value was 6 h in series [2] and 3 h in series [3]. Also, the CFU-GM level in the series on CFU-GM (colonies with >50 cells, G-CSF 10 μg/kg daily for five days and/or dextran sulfate 15 mg/kg once on day 5 (Han 1998)) was 12.9±1.6 colonies. Further, the “time of peaks in peripheral WBC, MNC and CFU-GM” value in the series on CFU-GM (i.v. injection of 15-30 mg, mice (Han 1998)) is 2 to 5 h.
